Source: PubChem BioAssay (NCI)
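Growth conditions: 96-well plates. Treatment: test compound, 48 hours, 5 concentrations. Analysis: linear interpolation between bracketing concentrations; unreached endpoints set to highest concentration. GI50 is the concentration that inhibits growth by half. TGI: total growth inhibition.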

Tests used:
Assay in all cases: DTP human tumour cell line panel, 48 h
SNB-75 CNS = tested on: SNB-75 CNS
UACC-62 melanoma = tested on: UACC-62 melanoma
A549 NSCLC = tested on: A549 NSCLC
KM12 colon = tested on: KM12 colon
MDA-MB-231 breast = tested on: MDA-MB-231 breast
HCT-116 colon = tested on: HCT-116 colon
K-562 leukemia = tested on: K-562 leukemia
OVCAR-3 ovarian = tested on: OVCAR-3 ovarian
RPMI-8226 leukemia = tested on: RPMI-8226 leukemia
SK-MEL-2 melanoma = tested on: SK-MEL-2 melanoma
SN12C renal = tested on: SN12C renal
SR leukemia = tested on: SR leukemia
SF-295 CNS = tested on: SF-295 CNS
T-47D breast = tested on: T-47D breast
LOX IMVI melanoma = tested on: LOX IMVI melanoma
NCI-H460 lung = tested on: NCI-H460 lung
NCI/ADR-RES ovarian = tested on: NCI/ADR-RES ovarian
IGROV1 ovarian = tested on: IGROV1 ovarian
A498 renal = tested on: A498 renal
NCI-H522 lung = tested on: NCI-H522 lung
HCC-2998 colon = tested on: HCC-2998 colon
EKVX NSCLC = tested on: EKVX NSCLC
COLO 205 colon = tested on: COLO 205 colon
SNB-19 CNS = tested on: SNB-19 CNS
NCI-H226 lung = tested on: NCI-H226 lung
MCF7 breast = tested on: MCF7 breast
CCRF-CEM leukemia = tested on: CCRF-CEM leukemia
OVCAR-5 ovarian = tested on: OVCAR-5 ovarian
OVCAR-4 ovarian = tested on: OVCAR-4 ovarian
PC-3 prostate = tested on: PC-3 prostate
RXF 393 renal = tested on: RXF 393 renal
DU-145 prostate = tested on: DU-145 prostate
OVCAR-8 ovarian = tested on: OVCAR-8 ovarian
MDA-MB-435 = tested on: MDA-MB-435
MALME-3M melanoma = tested on: MALME-3M melanoma
HOP-62 NSCLC = tested on: HOP-62 NSCLC
UO-31 renal = tested on: UO-31 renal
SK-OV-3 ovarian = tested on: SK-OV-3 ovarian
MOLT-4 leukemia = tested on: MOLT-4 leukemia
786-0 renal = tested on: 786-0 renal
HL-60(TB) leukemia = tested on: HL-60(TB) leukemia
HOP-92 NSCLC = tested on: HOP-92 NSCLC
SW-620 colon = tested on: SW-620 colon
CAKI-1 renal = tested on: CAKI-1 renal
SF-539 CNS = tested on: SF-539 CNS
SK-MEL-5 melanoma = tested on: SK-MEL-5 melanoma
SF-268 CNS = tested on: SF-268 CNS
SK-MEL-28 melanoma = tested on: SK-MEL-28 melanoma
HCT-15 colon = tested on: HCT-15 colon
HS 578T breast = tested on: HS 578T breast
NCI-H23 lung = tested on: NCI-H23 lung
U251 CNS = tested on: U251 CNS
ACHN renal = tested on: ACHN renal
UACC-257 melanoma = tested on: UACC-257 melanoma
M14 melanoma = tested on: M14 melanoma
BT-549 breast = tested on: BT-549 breast
TK-10 renal = tested on: TK-10 renal

## COc1ccc2c(c1)/C(=C\c1c(-c3cc(OC)ccc3OC)nc3sc(C)cn13)C(=O)N2C
SNB-75 CNS
  GI50: 6.68 µM
  TGI: 45.9 µM
UACC-62 melanoma
  GI50: 17.3 µM
  TGI: 44.5 µM
A549 NSCLC
  GI50: 38.6 µM
  TGI: > 100 µM
KM12 colon
  GI50: 37.7 µM
  TGI: > 100 µM
MDA-MB-231 breast
  GI50: 16.7 µM
  TGI: 96.7 µM
HCT-116 colon
  GI50: 22.3 µM
  TGI: > 100 µM
K-562 leukemia
  GI50: 28 µM
  TGI: > 100 µM
OVCAR-3 ovarian
  GI50: 15.6 µM
  TGI: 54.5 µM
RPMI-8226 leukemia
  GI50: 9.13 µM
  TGI: 58.4 µM
SK-MEL-2 melanoma
  GI50: 17.3 µM
  TGI: 38.5 µM
SN12C renal
  GI50: 24.7 µM
  TGI: > 100 µM
SR leukemia
  GI50: 20.8 µM
  TGI: 53 µM
SF-295 CNS
  GI50: 13.1 µM
  TGI: 35.8 µM
T-47D breast
  GI50: 29.7 µM
  TGI: > 100 µM
LOX IMVI melanoma
  GI50: 23.9 µM
  TGI: 83.5 µM
NCI-H460 lung
  GI50: 24.9 µM
  TGI: 93.9 µM
NCI/ADR-RES ovarian
  GI50: 27.4 µM
  TGI: > 100 µM
IGROV1 ovarian
  GI50: 19.4 µM
  TGI: > 100 µM
A498 renal
  GI50: 27.2 µM
  TGI: 98.7 µM
NCI-H522 lung
  GI50: 29.6 µM
  TGI: > 100 µM
HCC-2998 colon
  GI50: 59.7 µM
  TGI: > 100 µM
EKVX NSCLC
  GI50: 61.1 µM
  TGI: > 100 µM
COLO 205 colon
  GI50: 18.1 µM
  TGI: 44.2 µM
SNB-19 CNS
  GI50: 58.9 µM
  TGI: > 100 µM
NCI-H226 lung
  GI50: 30.9 µM
  TGI: > 100 µM
MCF7 breast
  GI50: 28.3 µM
  TGI: > 100 µM
CCRF-CEM leukemia
  GI50: 12.1 µM
  TGI: > 100 µM
OVCAR-5 ovarian
  GI50: 55.7 µM
  TGI: > 100 µM
OVCAR-4 ovarian
  GI50: 20.9 µM
  TGI: > 100 µM
PC-3 prostate
  GI50: 16.3 µM
  TGI: 93.8 µM
RXF 393 renal
  GI50: > 100 µM
  TGI: > 100 µM
DU-145 prostate
  GI50: 56.9 µM
  TGI: > 100 µM
OVCAR-8 ovarian
  GI50: 28.2 µM
  TGI: > 100 µM
MDA-MB-435
  GI50: 26.5 µM
  TGI: 79.9 µM
MALME-3M melanoma
  GI50: > 100 µM
  TGI: > 100 µM
HOP-62 NSCLC
  GI50: 26.3 µM
  TGI: > 100 µM
UO-31 renal
  GI50: 16.8 µM
  TGI: > 100 µM
SK-OV-3 ovarian
  GI50: 28 µM
  TGI: > 100 µM
MOLT-4 leukemia
  GI50: 14.1 µM
  TGI: 51.8 µM
786-0 renal
  GI50: 31.1 µM
  TGI: > 100 µM
HL-60(TB) leukemia
  GI50: 18.3 µM
  TGI: 41.4 µM
HOP-92 NSCLC
  GI50: 4.33 µM
  TGI: 37.6 µM
SW-620 colon
  GI50: 42.6 µM
  TGI: > 100 µM
CAKI-1 renal
  GI50: 18.3 µM
  TGI: 86 µM
SF-539 CNS
  GI50: 32.9 µM
  TGI: > 100 µM
SK-MEL-5 melanoma
  GI50: 20.9 µM
  TGI: 65.4 µM
SF-268 CNS
  GI50: 28.6 µM
  TGI: > 100 µM
SK-MEL-28 melanoma
  GI50: 16 µM
  TGI: 32.3 µM
HCT-15 colon
  GI50: 33.9 µM
  TGI: > 100 µM
HS 578T breast
  GI50: 48.9 µM
  TGI: > 100 µM
NCI-H23 lung
  GI50: 38.5 µM
  TGI: > 100 µM
U251 CNS
  GI50: 39.7 µM
  TGI: > 100 µM
ACHN renal
  GI50: 28.2 µM
  TGI: > 100 µM
UACC-257 melanoma
  GI50: 23.5 µM
  TGI: 45.9 µM
M14 melanoma
  GI50: 26.1 µM
  TGI: 71.4 µM
BT-549 breast
  GI50: 32.3 µM
  TGI: > 100 µM
TK-10 renal
  GI50: 48.7 µM
  TGI: > 100 µM
